Patent US20080227774A1, “5,5-DISUBSTITUTED-INDOLIZINONE COMPOUNDS” (priority 2007, published 2008)

Target: NS5B polymerase (Hepatitis C virus genotype 1b, UniProt P26663)
Test: HCV polymerase inhibition assay (FlashPlate)
Type: biochemical
Conditions: 20 nM enzyme, 75 min at 28° C.
Description: Compounds were tested for HCV polymerase inhibition. Assays were performed in a 96-well streptavidin-coated FlashPlate using 20 nM enzyme, 0.5 μCi of [α-^33P]GTP, 0.6 μM GTP, and 250 nM 5′biotinylated oligo (rG13)/poly rC in 20 mM Tris-HCl, pH 7.5, 5 mM MgCl2, 5 mM dithiothreitol, 0.1 g/L bovine serum albumin, and 100 U/ml RNAse inhibitor. The reaction was stopped by aspiration after 75 min at 28° C. and the plate was washed several times. After washing and drying the plate, incorporated radioactivity was counted using a Microbeta scintillation counter. IC50 values were calculated relative to the uninhibited control and inhibition data were fitted to a 4-parameter IC50 equation. For very potent inhibitors, the data were fitted to a tight binding quadratic equation to obtain IC50 values.

Chain of NS5B polymerase (P26663 2420-3010): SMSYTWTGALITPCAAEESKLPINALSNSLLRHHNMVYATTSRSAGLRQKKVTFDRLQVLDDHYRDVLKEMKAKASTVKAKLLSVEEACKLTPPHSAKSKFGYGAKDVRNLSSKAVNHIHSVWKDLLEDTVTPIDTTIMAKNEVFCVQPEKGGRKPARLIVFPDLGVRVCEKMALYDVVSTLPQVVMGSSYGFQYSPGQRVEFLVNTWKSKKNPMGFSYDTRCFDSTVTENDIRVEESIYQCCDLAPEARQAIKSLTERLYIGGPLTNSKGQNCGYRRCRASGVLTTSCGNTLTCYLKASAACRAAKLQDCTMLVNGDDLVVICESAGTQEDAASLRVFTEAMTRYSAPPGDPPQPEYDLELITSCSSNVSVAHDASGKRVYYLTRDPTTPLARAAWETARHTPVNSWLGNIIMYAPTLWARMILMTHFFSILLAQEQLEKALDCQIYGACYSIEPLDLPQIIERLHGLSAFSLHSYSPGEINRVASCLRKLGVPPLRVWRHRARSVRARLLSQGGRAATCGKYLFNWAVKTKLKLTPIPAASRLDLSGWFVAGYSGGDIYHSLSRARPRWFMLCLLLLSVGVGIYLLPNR

IC50 [µM] | Compound
< 50 | CC(C)CCC1(C)C(=O)C(C2=Nc3ccccc3S(=O)(=O)N2)=C(O)c2cccn21 (stereo not shown) [Example 1, 7-(1,1-Dioxo-1,2-dihydro-1λ^6-benzo[1,2,4]thiadiazin-3-yl)-8-hydroxy-5-methyl-5-(3-methylbutyl)indolizin-6-one]
< 50 | CC(C)CCC1(C)C(=O)C(C2=NS(=O)(=O)c3cc(NS(C)(=O)=O)ccc3N2)=C(O)c2cccn21 (stereo not shown) [Example 2, N-{3-[8-Hydroxy-5-methyl-5-(3-methylbutyl)-6-oxo-5,6-dihydroindolizin-7-yl]-1,1-dioxo-1,2-dihydro-1λ^6-benzo[1,2,4]thiadiazin-7-yl}methanesulfonamide]
< 50 | C[C@]1(Cc2ccc(F)cc2)C(=O)C(C2=NS(=O)(=O)c3cc(NS(C)(=O)=O)ccc3N2)=C(O)c2cccn21 [Example 3, N-{3-[5-(S)-(4-Fluoro-benzyl)-8-hydroxy-5-methyl-6-oxo-5,6-dihydro-indolizin-7-yl]-1,1-dioxo-1,4-dihydro-1λ^6-benzo[1,2,4]thiadiazin-7-yl}-methanesulfonamide]
< 50 | CC1(Cc2ccc(F)c(Cl)c2)C(=O)C(C2=NS(=O)(=O)c3cc(NS(C)(=O)=O)ccc3N2)=C(O)c2cccn21 (stereo not shown) [Example 4, N-{3-[5-(3-Chloro-4-fluoro-benzyl)-8-hydroxy-5-methyl-6-oxo-5,6-dihydro-indolizin-7-yl]-1,1-dioxo-1,4-dihydro-1λ^6-benzo[1,2,4]thiadiazin-7-yl}-methanesulfonamide]
